Measurements reported in US6630125B2, “18F-labeled choline analogs” (priority 2000, dated 2003).

Assays:
[1] = Human dosimetry estimation (MIRDOSE 3.1 from mouse biodistribution)
Source text: Urinary radioactivity was assumed to be retained within the urinary bladder. […] Since urinary excretion patterns in rodents are commonly more rapid than in the human, the assumption of no urinary clearance of radioactivity was precautionary. Bone uptake was distributed at the bone surfaces. The 70 kg adult male ORNL phantom was used since this would best reflect the primary study population (prostate carcinoma).

[2] = system: PC-3 prostate cancer cells; test: Analysis of radiolabeled metabolites in PC-3 prostate cancer cells; assay type: cell-based, human
Method: The primary hydrophilic metabolites of choline in mammals is phosphocholine and betaine. […] The HPLC system used a microprocessor-controlled solvent delivery system and a silica column (Adsorbosphere Silica (10μ), 250×4.6 mm, Alltech, Deerfield, Ill.). The column was kept at room temperature and the flow rate was maintained at 1.5 ml/min. […] Fractions of effluent were collected every 0.5 min and first counted for ^18F-radioactivity in a well-counter for experiments involving [^18F]FCH, then transferred to scintillation vials for counting for ^14C-radioactivity. The column was equilibrated for 6 min with Buffer A before injection. After the injection (<100 μl), Buffer A was delivered for 6 min which eluted betaine (3 min) from the column. […] Re-equilibration of the column with 100% A for 6 min preceded the next injection.
Methanol (1 ml) was added to each well and the cells were lysed by maintaining the temperature at 37° C. for 30 min. The methanol phase was transferred to a glass test tube. Each well was rinsed with an additional 0.5 ml methanol which was added to the original fraction. To each tube, 3 ml chloroform and 1 ml 0.25 M sodium phosphate (pH=4.5) were added to separate lipids from water-soluble molecules. After vigorous mixing of the samples for 1 min, the two phases were separated, and a 0.5 ml aliquot of each phase was counted for ^18F and ^14C radioactivity. The aqueous phase was further analyzed for water-soluble metabolites using the gradient-HPLC method previously described.
Cells incubated in 6-well plates for 2 hr with radiotracers were thoroughly washed to remove all extracellular radioactivity. The cells were lysed in methanol and the methanol solution added to chloroform to solubilize all lipophilic metabolites.

[3] = system: PC-3 human prostate cancer cells; test: Accumulation of radiotracers by cultured PC-3 cells; assay type: cell-based
Method: The incubation media utilized for the experiments differed according to the cancer cell type (Table 1). On the day of the study, the medium was refreshed using a volume of 1 ml in each well. Cells were incubated in control conditions or with the addition of metabolic and growth factor receptor inhibitors to test the sensitivity of uptake of the radiotracers to specific inhibitions. […] Following a 30-min incubation period, the radiotracers (e.g., FDG or FCH) were added (˜2 µCi/well) and the cells were incubated for 2 hr. The cells were washed three times with phosphate buffered saline solution, released from the plates by briefly incubating with 0.05% trypsin in DMEM, transferred to test tubes, and counted for F-18 radioactivity in a gamma counter. The amount of radioactivity in the cells was normalized by the dose administered to each well.
The present work studies the structure-activity relationships for purposes of optimization of the molecule for imaging prostate cancer. […] A number of structural analogs of choline were labeled as N-[^18F]fluoromethyl derivatives via the intermediate [^18F]fluorobromomethane (see Table 3). Uptake of the radiotracers was assessed in cultured PC-3 human prostate cancer cells and in a murine PC-3 xenograft model.

[4] = Stability of FCH in human whole blood; assay type: in vitro ADME; details: 2 hr, 37 C, blood of healthy human subjects (n=5)
Method: The stability of FCH in its prepared form was evaluated by monitoring the radiochemical purity using the HPLC system described above. […] After an incubation of 2 hr at 37 C, the plasma was separated, the plasma proteins precipitated by adding two volumes of methanol, and the supernatant was analyzed for intact FCH by cation-exchange HPLC. […] FCH was also found to be stable in a blood samples taken from healthy human subjects (n=5).

[5] = system: patients with prostate cancer; test: PET imaging in patients with prostate cancer; details: human, in vivo
Method: The distribution of FCH in PET imaging studies was evaluated in 14 patients with prostate cancer, 14 patients with breast cancer, and 5 patients with brain tumors. Imaging was performed using the Advance PET scanner (GE Medical Systems, Milwaukee, Wis.). […] In prostate cancer patients, a transmission scan of the pelvic region was obtained before administration of radiotracer. FCH (2.5-5 mCi) was administered intravenously, and dynamic imaging of the pelvis region was commenced for 20-30 min. During image reconstruction, the emission data in the pelvic region were corrected for photon attenuation using the transmission scan. Immediately following the dynamic scan, a whole-body emission scan was performed without transmission scanning for attenuation correction. The images were reconstructed using an Ordered Subset Expectation Maximum (OS-EM) algorithm. Regions-of-interest were drawn manually on the attenuation corrected images for evaluation of FCH kinetics in tissues. Standardized uptake values of FCH uptake in tissues were calculated using the attenuation-corrected images according to the equation: [formula]
Patient 2: Transmission and FCH emission scans of a person with hormone naive clinical stage T2 prostate cancer were commenced over the lower pelvis.
The same patient was scanned with FDG within the same week (FIG. 8).
Patient 4: A person with a history of clinical stage T3b prostate cancer treated by radical retropubic prostatectomy was diagnosed with metastatic disease by bone scan. FCH-PET imaging was performed before and after initiating androgen deprivation therapy. In the first study, whole-body emission scanning was started 5 min after injection, beginning at the pelvic region in order to image the pelvis and prostatic bed before arrival of urinary radioactivity. […] The patient was rescanned 2 weeks after initiating androgen deprivation therapy.
Patient 5: A person was initially diagnosed five years prior with locally advanced clinical stage T3NOMO prostate cancer and underwent radical prostatectomy followed by external beam radiation to the prostate bed. […] The patient was then treated with Zolex and Casodex.

[6] = calculated from mice biodistribution data

C[N+](C)(CF)CCO.[Cl-] [FCH, dimethylfluoromethyl-2-hydroxyethylammonium chloride]
effective dose equivalent (EDE) ([1]; 10 mCi administration): 1.1 rem
largest organ dose (kidney) ([1]; 10 mCi administration): 8.1 rads/rems
Human radiation dose estimate, Heart ([1]; calculated from mice FCH biodistribution data, 70 kg adult male phantom): 0.046 rads/mCi
Human radiation dose estimate, Bladder wall [1, 6]: 0.049 rads/mCi
Human radiation dose estimate, Bone [1, 6]: 0.038 rads/mCi
Human radiation dose estimate, Brain [1, 6]: 0.0071 rads/mCi
Human radiation dose estimate, Kidney [1, 6]: 0.81 rads/mCi
Human radiation dose estimate, Liver [1, 6]: 0.30 rads/mCi
Human radiation dose estimate, Lung [1, 6]: 0.043 rads/mCi
Human radiation dose estimate, Muscle [1, 6]: 0.032 rads/mCi
Human radiation dose estimate, Ovaries [1, 6]: 0.039 rads/mCi
Human radiation dose estimate, Red marrow [1, 6]: 0.043 rads/mCi
Human radiation dose estimate, Testes [1, 6]: 0.028 rads/mCi
^18F-labeled species: hydrophilic metabolites, FCH ([2]; +HC-3 (5 mM hemicholinium-3)): 0.04 ± 0.01 percentage of administered dose
^18F-labeled species: hydrophilic metabolites, P-FCH ([2]; +HC-3 (5 mM hemicholinium-3)): 0.12 ± 0.03 percentage of administered dose
^18F-labeled species: lipophilic metabolites ([2]; +HC-3 (5 mM hemicholinium-3)): 0.01 ± 0.01 percentage of administered dose
^18F-labeled species: hydrophilic metabolites, FCH ([2]; Control, 2 hr, 37° C.): 0.29 ± 0.05 percentage of administered dose
^18F-labeled species: hydrophilic metabolites, P-FCH ([2]; Control, 2 hr, 37° C.): 7.1 ± 0.9 percentage of administered dose
^18F-labeled species: lipophilic metabolites ([2]; Control, 2 hr, 37° C.): 2.4 ± 0.4 percentage of administered dose
incorporation of radioactivity into lipophilic species, FCH relative to [^14C]CH ([2]; PC-3 cells, 2 hr): 5 fold
oxidation in the cancer cells (betaine / fluorobetaine by HPLC) ([2]; PC-3 cells, 2 hr): negligible
share of cell radioactivity found as phosphorylated tracer (phosphorylfluorocholine / phosphocholine) ([2]; PC-3 cells, 2 hr): Approximately 72%
share of total cell radioactivity as lipophilic metabolites ([2]; PC-3 cells, 2 hr): 25%
uptake in cultured PC-3 cells [3]: ~2 %/hr/100,000 cells plated
Uptake by PC-3 cancer cells, HC-3 ([3]; 5 mM hemicholinium-3): 0.18 ± 0.02 % dose/2 hr/105 cells plated
decrease in uptake by PC-3 cells with hemicholinium-3 (HC-3) ([3]; HC-3 versus control): 89%
uptake of FCH relative to HARA-1 ([3]; PC-3 prostate cancer cells): 3 fold
accumulation by cultured PC-3 cells compared with other tracers ([3]; control conditions): similarly to CH
Uptake by PC-3 cancer cells, Control ([3]; control, 2 hr incubation): 1.58 ± 0.18 % dose/2 hr/105 cells plated
Uptake by PC-3 cells ([3]; inhibitor HC-3 (hemicholinium-3, 5 mM)): 0.160 ± 0.009 % dose/2 hr/10^5 cells plated
Uptake by PC-3 cells ([3]; inhibitor none): 1.574 ± 0.033 % dose/2 hr/10^5 cells plated
stability in whole blood (HPLC) [4]: completely intact
decrease of SUV in ischial metastasis [5]: 68%
decrease of SUV in primary tumor [5]: 61%
decrease of SUVs in the tumors [5]: 35-40%
SUV in ischial metastasis ([5]; male): 2.4
SUV in primary tumor ([5]; male): 3.0
SUV index in osseous lesions ([5]; male): 8.0
SUV values in osseous lesions of the pelvis region ([5]; male): 3.8-8.0
injected dose of radioactivity in urine ([5]; male): 1.3%
radioactivity concentration in the brain relative to prostate gland or metastasis ([5]; male): < 2%
time of arrival of radioactivity in the urinary bladder / urine ([5]; male): about 8 min
time to plateau of radioactivity concentration in prostate and metastasis ([5]; male): ≤ 5 min
time to plateau of radioactivity concentration in the prostate bed ([5]; male): ≤ 3 min
tracer uptake in osseous lesions, FCH relative to FDG ([5]; male): 2 fold
arterial concentration relative to the peak level ([5]; male, 2 min): < 5%
SUV of osseous metastasis (left ischium) ([5]; male, 5 min): 7.7
SUV of primary tumor ([5]; male, 5 min): 7.7
